Assay results: article PMC11432405, “Development of Novel Alaninamide Derivatives with Anticonvulsant Activity and Favorable Safety Profiles in Animal Models” (International Journal of Molecular Sciences, 2024)
Where two headings read alike, the source gives them in different places.

Key:
[1] = test system: maximal electroshock (MES) seizures; test: maximal electroshock seizure (MES) test; assay type: in vivo, mice; conditions: for PI (TD50/ED50) MES: TD50 rotarod / ED50 MES; for protection (efficacy) in the MES screening / MES test: number of mice protected / number of mice tested / responders at 100 mg/kg / ED50 / ED50 MES: mice i.p.; for responders at 100 mg/kg / ED50: Mus musculus, ip; for ED50 / ED50 MES: TPE 0.5 h, 95% confidence interval in parentheses
Source text: Epilepsy is a multifaceted disorder with often unclear etiology, making it challenging to pinpoint a specific receptor or transporter as the definitive target. Consequently, the discovery of ASMs deviates from the traditional drug development pathway, which typically involves designing a new molecule, docking it with a specific biological target, and performing chemical synthesis, followed by in vitro assays. Instead, numerous animal seizure models, which mirror various types of human epileptic seizures, are initially employed in the process of new ASM discovery. This approach has been instrumental in the identification and introduction into clinical practice of all currently used ASMs and continues to be a cornerstone in the preclinical development of new anticonvulsants. The primary justification for prioritizing in vivo screening over in vitro binding and functional studies is the complex and often not fully elucidated mechanisms of action of known ASMs. This approach also facilitates the discovery of compounds with novel, previously undefined pharmacodynamic properties. In light of this, we evaluated all compounds obtained in the current studies using the MES test, which remains one of the most valuable preclinical screening models for tonic-clonic seizures, as well as partial convulsions with or without secondary generalization in humans. This test allows for a comprehensive assessment of the anticonvulsant efficacy of new ASM candidates and is considered highly relevant for predicting their therapeutic efficacy in human epilepsy. The MES test was carried out in mice following the intraperitoneal (i.p.) administration of a screening dose of 100 mg/kg in a group consisting of four animals. The efficacy of the compounds synthesized was evaluated at 0.5 h pretreatment time.
Fresh solutions were prepared daily for each experimentation session.
Each group consisted of six animals.

[2] = test system: motor coordination; test: rotarod test (acute neurological toxicity, motor coordination); assay type: in vivo; conditions: mice i.p., 0.5 h
Description: (§2) The protective indexes (PIs) were then calculated as the ratio of TD50 to ED50 (PI = TD50/ED50), providing an assessment of the therapeutic window for each compound.

[3] = biological target: T1, human recombinant MAO-B (Homo sapiens, UniProt P27338); test: fluorometric monoamine oxidase B inhibition assay; assay type: biochemical; conditions: for % inhibition MAO-B (1 µM): mean of two independent experiments; for inhibition at 1 µM: read-out: % inhibition MAO-B (1 µM), mean of two independent experiments
T1 construct: purchased Sigma Aldrich
T1 sequence (P27338 1-520): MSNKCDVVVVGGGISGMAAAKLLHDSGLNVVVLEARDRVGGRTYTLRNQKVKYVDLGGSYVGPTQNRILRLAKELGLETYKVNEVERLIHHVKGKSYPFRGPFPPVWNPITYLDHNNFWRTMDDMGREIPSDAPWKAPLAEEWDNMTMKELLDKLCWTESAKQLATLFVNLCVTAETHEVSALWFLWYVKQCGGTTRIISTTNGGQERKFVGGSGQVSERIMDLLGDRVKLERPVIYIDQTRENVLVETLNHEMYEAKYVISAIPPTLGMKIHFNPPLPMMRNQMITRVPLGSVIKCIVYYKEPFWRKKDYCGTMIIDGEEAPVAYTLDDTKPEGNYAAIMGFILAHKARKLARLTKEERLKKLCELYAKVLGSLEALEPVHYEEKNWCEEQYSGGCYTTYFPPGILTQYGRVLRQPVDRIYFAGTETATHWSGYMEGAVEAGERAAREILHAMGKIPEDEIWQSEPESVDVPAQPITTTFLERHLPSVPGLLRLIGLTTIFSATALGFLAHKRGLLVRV

[4] = test system: 6 Hz (32 mA) seizures; test: 6 Hz (32 mA) psychomotor seizure model; conditions: for PI (TD50/ED50) 6 Hz: TD50 rotarod / ED50 6 Hz (32 mA); for protection (efficacy) in the 6 Hz (32 mA) screening / ED50 6 Hz (32 mA) / 6 Hz (32 mA) test: number of mice protected / number of mice tested: mice i.p.; for protection (efficacy) in the 6 Hz (32 mA) screening: 100 mg/kg, four mice; for protection (efficacy) in the 6 Hz (32 mA) screening / ED50 / responders at 100 mg/kg: 0.5 h; for ED50 6 Hz (32 mA): TPE 0.5 h, 95% confidence interval in parentheses; for 6 Hz (32 mA) test: number of mice protected / number of mice tested: dose of 100 mg/kg, pretreatment time 0.5 h; for ED50 / responders at 100 mg/kg: Mus musculus, ip; for ED50: read-out: ED50 6 Hz (32 mA), mice i.p., TPE 0.5 h, 95% confidence interval in parentheses; for responders at 100 mg/kg: read-out: protection (efficacy) in the 6 Hz (32 mA) screening;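 on all read-outs here: adult male albino Swiss CD-1 mice, each used once, with compounds suspended in 1% Tween 80 in water as vehicle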
[5] = rotarod test (acute neurological toxicity, motor coordination); assay type: in vivo; conditions: male, CD-1 (albino Swiss), mouse, in vivo, ip, mice i.p.
Description: as §2

[6] = test system: HepG2 cells; test: hepatocytotoxicity MTT viability assay; assay type: cell-based, human; conditions: 24 h
Description: (§1) To evaluate selected compounds’ hepatocytotoxicity and neurocytotoxicity, a human hepatocellular carcinoma cell line, HepG2 (ATCC® HB-8065™), and a human neuroblastoma cell line, SH-SY5Y (ATCC®, CRL-2266™), were used. Both cell lines were cultured in standard culture conditions (5% CO2, 37 °C, 95% humidity) using Dulbecco′s Modified Eagle′s—Medium (DMEM; Gibco, Thermo Scientific, Waltham, MA, USA) supplemented with 10% (vol/vol) fetal bovine serum (FBS; Gibco, Thermo Scientific, Waltham, MA, USA) and an antibiotic mixture (Penicillin, Streptomycin, Amphotericin B; Gibco, Thermo Scientific, Waltham, MA, USA). Cells were cultured with compounds 5, […], or 39 (1–50 µM) for 24 h and then an MTT (3-(4,5-dimethylthiazol-2-yl)-2,5diphenyltetrazolium bromide, Sigma-Aldrich, St. Louis, MO, USA) viability assay was performed. The formazan crystals were dissolved in DMSO (Sigma-Aldrich, St. Louis, MO, USA), and the absorbance at 570 nm was measured using a microplate reader (SpectraMax® iD3, Molecular Devices, San Jose, CA, USA). The experiment was performed three times in duplicate. Each bar represents the mean (±SEM) percentage of viable cells in comparison to the control (defined as 100% and represented by untreated cells).
Figure 2 The viability of HepG2 cells incubated in the presence of 5, 17, and 39. HepG2 cells were exposed to growing concentrations (1–50 µM) of tested compounds for 24 h. Cell viability was measured using an MTT assay. Bars represent mean percent of cell viability normalized to non-treated cells (100%) ± SEM. The doxorubicin was tested as a positive control.

[7] = test system: SH-SY5Y cells; test: neurocytotoxicity MTT viability assay; assay type: cell-based, human; conditions: 1–50 µM, 24 h
Description: as §1
Figure 3 The viability of SH-SY5Y cells incubated in the presence of compounds 5, 17, and 39. […] Cell viability was measured using an MTT assay. […]

[8] = test system: motor coordination; conditions: cited from earlier work
[9] = test system: maximal electroshock (MES) seizures; conditions: cited from earlier work; for PI (TD50/ED50) MES: TD50 rotarod / ED50 MES
[10] = test system: 6 Hz (32 mA) seizures; conditions: cited from earlier work; for PI (TD50/ED50) 6 Hz: TD50 rotarod / ED50 6 Hz (32 mA)
[11] = test system: 6 Hz (44 mA) seizures; conditions: cited from earlier work; for PI (TD50/ED50) 6 Hz (44 mA): TD50 rotarod / ED50 6 Hz (44 mA)
[12] = dose of 100 mg/kg, pretreatment time 0.5 h
[13] = dose of 100 mg/kg, pretreatment time 0.5 h, read-out: MES test: number of mice protected / number of mice tested (converted)

CC(C(=O)NCc1ccc(OCc2ccccc2Cl)cc1)N1C(=O)CCC1=O (stereo not shown) [Compound 9, N-(4-((2-chlorobenzyl)oxy)benzyl)-2-(2,5-dioxopyrrolidin-1-yl)propanamide]
PI (TD50/ED50) MES [1]: > 6.3
protection (efficacy) in the MES screening ([1]; 100 mg/kg, 0.5 h, four mice): 100%
MES test: number of mice protected / number of mice tested [1, 12]: 4/4
TD50 (rotarod test) [2]: >300 mg/kg
% inhibition MAO-B (1 µM) [3]: 0%
PI (TD50/ED50) 6 Hz [4]: > 5.2
protection (efficacy) in the 6 Hz (32 mA) screening [4]: 75%
ED50 6 Hz (32 mA) [4]: 57.69 (33.98–97.94) mg/kg
6 Hz (32 mA) test: number of mice protected / number of mice tested [4]: 3/4

CC(C(=O)NCc1ccc(OCc2ccc(OC(F)(F)F)cc2)cc1)N1C(=O)CCC1=O (stereo not shown) [Compound 17, 2-(2,5-dioxopyrrolidin-1-yl)-N-(4-((4-(trifluoromethoxy)benzyl)oxy)benzyl)propanamide]
responders at 100 mg/kg ([1]; 100 mg/kg, 0.5 h, four mice, read-out: protection (efficacy) in the MES screening): 100%
ED50 [1]: 21 mg/kg
responders at 100 mg/kg [1, 13]: 100%
TD50 at 0.5 h [5]: > 300 mg/kg
toxic effect on HepG2 cell viability (MTT) ([6]; 1–50 µM): do not exhibit toxic effects
toxic effect on SH-SY5Y cell viability (MTT) [7]: do not exhibit toxic effects
inhibition at 1 µM [3]: 0%
melting point: 104.1 to 104.8 °C
ED50 [4]: 77 mg/kg
responders at 100 mg/kg [4]: 75%

CC[C@@H](C(N)=O)N1CCCC1=O [LEV, levetiracetam]
TD50 (rotarod test) ([8]; mice i.p., Table 2): >500 mg/kg
TD50 (rotarod test) ([8]; mice i.p., Table 3): >500 mg/kg

COC[C@@H](NC(C)=O)C(=O)NCc1ccccc1 [LCS, lacosamide]
PI (TD50/ED50) MES [9]: 5.0
ED50 MES ([9]; mice i.p., TPE 0.5 h (LEV 1.0 h), same conditions): 9.2 (8.5–10.0) mg/kg
PI (TD50/ED50) 6 Hz [10]: 8.8
ED50 6 Hz (32 mA) ([10]; mouse, in vivo, ip): 5.3 (3.5–7.8) mg/kg
PI (TD50/ED50) 6 Hz (44 mA) [11]: 6.7
ED50 6 Hz (44 mA) ([11]; mice i.p., TPE 0.5 h (LEV 1.0 h)): 6.9 (5.4–8.6) mg/kg

C[C@H](C(=O)NCc1ccccc1)N1C(=O)CCC1=O [(R)-AS-1, (R)-N-Benzyl-2-(2,5-Dioxopyrrolidin-1-Yl)Propanamide]
PI (TD50/ED50) MES [9]: > 7.5
PI (TD50/ED50) 6 Hz [10]: > 32.0
PI (TD50/ED50) 6 Hz (44 mA) [11]: >12.0
TD50 (rotarod test) ([8]; mouse, in vivo, ip): >500 mg/kg

CC(C(=O)NCc1ccc(OCc2ccc(OC(F)(F)F)cc2)cc1)N1CCCC1=O (stereo not shown) [Compound 39, 2-(2-oxopyrrolidin-1-yl)-N-(4-((4-(trifluoromethoxy)benzyl)oxy)benzyl)propanamide]
ED50 [1]: 36.2 mg/kg
responders at 100 mg/kg [1, 13]: 100%
PI (TD50/ED50) MES [1]: < 8.3
TD50 at 0.5 h [5]: < 300 mg/kg
cell viability at higher concentration (MTT) ([6]; 50 µM, cell line not specified in the sentence (Figures 2 and 3)): statistically significant decrease in cell viability
inhibition at 1 µM [3]: 0%
melting point: 103.4 to 103.9 °C
ED50 [4]: 37.3 mg/kg
responders at 100 mg/kg [4]: 100%
PI (TD50/ED50) 6 Hz [4]: < 8.0

CC(C(=O)NCc1ccc(OCc2cccc(F)c2)cc1)N1C(=O)CCC1=O (stereo not shown) [Compound 7, 2-(2,5-dioxopyrrolidin-1-yl)-N-(4-((3-fluorobenzyl)oxy)benzyl)propanamide]
PI (TD50/ED50) MES [1]: > 3.8
protection (efficacy) in the MES screening ([1]; 100 mg/kg, 0.5 h, four mice): ≤ 25%
ED50 MES [1]: 78.30 (65.82–93.13) mg/kg
MES test: number of mice protected / number of mice tested [1, 12]: 1/4
TD50 (rotarod test) [2]: >300 mg/kg
% inhibition MAO-B (1 µM) [3]: 0%
PI (TD50/ED50) 6 Hz [4]: > 4.2
protection (efficacy) in the 6 Hz (32 mA) screening [4]: 100%
ED50 6 Hz (32 mA) [4]: 71.73 (66.6–77.23) mg/kg
6 Hz (32 mA) test: number of mice protected / number of mice tested [4]: 4/4

CC(C(=O)NCc1ccc(OCc2cccc(Cl)c2)cc1)N1C(=O)CCC1=O (stereo not shown) [Compound 10, N-(4-((3-chlorobenzyl)oxy)benzyl)-2-(2,5-dioxopyrrolidin-1-yl)propanamide]
PI (TD50/ED50) MES [1]: > 5.9
protection (efficacy) in the MES screening ([1]; 100 mg/kg, 0.5 h, four mice): 100%
ED50 MES [1]: 50.87 (45.29–57.13) mg/kg
MES test: number of mice protected / number of mice tested [1, 12]: 4/4
TD50 (rotarod test) [2]: >300 mg/kg
% inhibition MAO-B (1 µM) [3]: 0%
PI (TD50/ED50) 6 Hz [4]: > 5.0
protection (efficacy) in the 6 Hz (32 mA) screening [4]: 75%
ED50 6 Hz (32 mA) [4]: 59.31 (45.54–73.08) mg/kg
6 Hz (32 mA) test: number of mice protected / number of mice tested [4]: 3/4
